Laboratory results as given in ChEMBL document CHEMBL1122903, “Synthesis, in vitro [3H]prazosin displacement, and in vivo activity of 3-aryl-4,5,6,7-tetrahydropyrazolo[4,3-c]pyridines, a new class of antihypertensive agents” (J Med Chem, 1985).

What was measured:
Rattus norvegicus [1] = assay: Antihypertensive activity on spontaneously hypertensive rats when administered orally at a dose 50 mg/kg.; type: functional; settings: route oral
[2] = biological target: T1, Adrenergic receptor alpha-1 (Rattus norvegicus, UniProt P15823+P23944+P43140); assay: Ability to displace [3H]prazosin from postsynaptic alpha-1 adrenergic receptor of rat in vitro.; type: protein assay
T1 sequence (P15823 whole entry): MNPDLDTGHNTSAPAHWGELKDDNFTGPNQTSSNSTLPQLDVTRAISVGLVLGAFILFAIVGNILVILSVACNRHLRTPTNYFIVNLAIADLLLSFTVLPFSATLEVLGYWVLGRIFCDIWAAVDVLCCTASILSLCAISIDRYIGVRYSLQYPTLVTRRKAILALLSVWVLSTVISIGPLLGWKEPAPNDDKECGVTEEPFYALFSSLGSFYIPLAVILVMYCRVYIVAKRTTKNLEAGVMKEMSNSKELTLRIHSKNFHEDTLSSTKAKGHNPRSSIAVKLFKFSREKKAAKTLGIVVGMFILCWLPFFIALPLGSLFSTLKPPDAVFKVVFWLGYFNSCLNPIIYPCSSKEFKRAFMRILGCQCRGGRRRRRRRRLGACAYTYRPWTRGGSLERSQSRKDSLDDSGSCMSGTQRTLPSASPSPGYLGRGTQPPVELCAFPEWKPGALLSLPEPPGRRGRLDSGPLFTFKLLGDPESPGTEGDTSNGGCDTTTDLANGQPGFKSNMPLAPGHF
T1 sequence (P23944 whole entry): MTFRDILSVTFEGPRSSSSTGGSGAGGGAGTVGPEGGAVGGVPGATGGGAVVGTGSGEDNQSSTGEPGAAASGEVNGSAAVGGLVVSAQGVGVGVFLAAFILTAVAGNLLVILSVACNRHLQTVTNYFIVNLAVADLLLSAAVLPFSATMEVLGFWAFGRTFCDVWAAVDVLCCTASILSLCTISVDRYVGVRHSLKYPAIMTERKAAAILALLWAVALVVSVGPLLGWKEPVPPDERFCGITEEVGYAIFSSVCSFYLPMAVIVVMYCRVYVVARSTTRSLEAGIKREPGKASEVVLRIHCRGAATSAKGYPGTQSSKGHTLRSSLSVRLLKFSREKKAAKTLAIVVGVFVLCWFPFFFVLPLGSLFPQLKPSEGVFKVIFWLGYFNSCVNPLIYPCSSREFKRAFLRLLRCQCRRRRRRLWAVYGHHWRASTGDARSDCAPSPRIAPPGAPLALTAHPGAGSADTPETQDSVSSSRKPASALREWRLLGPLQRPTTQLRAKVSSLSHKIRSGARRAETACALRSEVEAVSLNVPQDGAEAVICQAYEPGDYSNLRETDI
T1 sequence (P43140 whole entry): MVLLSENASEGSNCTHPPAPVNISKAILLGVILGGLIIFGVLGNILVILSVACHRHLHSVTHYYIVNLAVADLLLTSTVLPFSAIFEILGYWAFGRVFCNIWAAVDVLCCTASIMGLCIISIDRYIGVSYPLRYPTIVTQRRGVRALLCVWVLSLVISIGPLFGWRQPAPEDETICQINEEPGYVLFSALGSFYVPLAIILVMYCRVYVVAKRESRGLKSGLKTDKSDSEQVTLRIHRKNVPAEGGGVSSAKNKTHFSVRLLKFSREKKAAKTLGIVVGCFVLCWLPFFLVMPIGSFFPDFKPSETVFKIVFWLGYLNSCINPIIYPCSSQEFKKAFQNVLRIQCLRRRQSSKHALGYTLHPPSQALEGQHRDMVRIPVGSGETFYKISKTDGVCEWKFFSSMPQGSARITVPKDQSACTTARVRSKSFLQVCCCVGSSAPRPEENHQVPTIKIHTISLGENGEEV

Rattus norvegicus [3] = assay: Antihypertensive activity on spontaneously hypertensive rats, when administered intravenously at a dose 10 mg/kg; type: functional; settings: route intravenous
Rattus norvegicus [4] = assay: Antihypertensive activity on spontaneously hypertensive rats, when administered orally at a dose 20 mg/kg; type: functional; settings: route oral

Row | Compound | Delta p (Rattus norvegicus [1]) [%] | Ki [2] [nM] | Delta p (Rattus norvegicus [3]) [%] | Delta p (Rattus norvegicus [4]) [%]
1 | Fc1ccccc1-c1[nH]nc2c1CNCC2 | 0 | > 3000 | – | –
2 | CN1CCc2c(c(-c3ccc(F)cc3)nn2CCc2ccccc2)C1 | 0 | 40.3 | – | –
3 | CCCCCCn1nc(-c2ccc(F)cc2)c2c1CCN(C)C2.CS(=O)(=O)O | -16 | 15.2 | – | –
4 | CCN1CCc2n[nH]c(-c3ccc(OC)cc3)c2C1 | 0 | > 3000 | – | –
5 | CCCn1nc(-c2ccc(F)cc2)c2c1CCNC2.CS(=O)(=O)O | -33 | 24.2 | – | –
6 | CCN1CCc2n[nH]c(-c3ccc(C)cc3)c2C1.O=C(O)CC(=O)O | 0 | 350 | – | –
7 | CN1CCc2n[nH]c(-c3ccccc3)c2C1.O=C(O)CC(O)(CC(=O)O)C(=O)O | 0 | 1300 | – | –
8 | Clc1cccc(-c2[nH]nc3c2CNCC3)c1 | 0 | > 3000 | – | –
9 | CS(=O)(=O)O.Fc1ccc(-c2nn(CCCc3ccccc3)c3c2CNCC3)cc1 | – | 12.9 | -37 | –
10 | CC(c1ccccc1)n1nc(-c2ccc(F)cc2)c2c1CCNC2.CS(=O)(=O)O (stereo unspecified) | – | 7.2 | – | -15
11 | CCCCCn1nc(-c2ccc(F)cc2)c2c1CCNC2.CS(=O)(=O)O | – | 8.7 | – | -20
12 | CN1CCc2c(c(-c3ccc(F)cc3)nn2-c2ccc(F)cc2)C1.CS(=O)(=O)O | – | 206 | – | 0
13 | CC(C)n1nc(-c2ccccc2)c2c1CCNC2 | 0 | 1100 | – | –
14 | COc1ccc(-c2[nH]nc3c2CNCC3)cc1OC | 0 | > 3000 | – | –
15 | Fc1cccc(-c2[nH]nc3c2CNCC3)c1 | 0 | > 3000 | – | –
16 | CCn1nc(-c2ccc(F)cc2)c2c1CCN(Cc1ccccc1)C2.CS(=O)(=O)O | -23 | 2020 | – | –
17 | CCn1nc(-c2ccc(F)cc2)c2c1CCNC2.CS(=O)(=O)O | – | 32.5 | – | -37
18 | Cn1nc(-c2ccc(F)cc2)c2c1CCNC2 | 0 | 1060 | – | –
19 | CC(C)N1CCc2c(c(-c3ccc(F)cc3)nn2Cc2ccccc2)C1 | -20 | 97.6 | – | –
20 | COc1ccc(-c2[nH]nc3c2CNCC3)cc1 | -15 | 448 | – | –
21 | N#Cc1ccc(-c2[nH]nc3c2CNCC3)cc1 | 0 | > 3000 | – | –
22 | CCCCn1nc(-c2ccc(F)cc2)c2c1CCNC2.CS(=O)(=O)O | – | 17.3 | -30 | –
23 | CCN1CCc2n[nH]c(-c3ccc(F)cc3)c2C1.O=C(O)CC(=O)O | 0 | 3400 | – | –
24 | CS(=O)(=O)O.Fc1ccc(-c2nn(CCc3ccccc3)c3c2CNCC3)cc1 | -15 | 40.3 | – | –

Row | Compound | Delta p (Rattus norvegicus [1]) [%] | Ki [2] [nM] | Delta p (Rattus norvegicus [3]) [%] | Delta p (Rattus norvegicus [4]) [%]
25 | Cc1ccc(-c2[nH]nc3c2CN(C)CC3)cc1.Cc1ccc(S(=O)(=O)O)cc1 | – | 249 | – | 0
26 | CN1CCc2n[nH]c(-c3ccc(Cl)cc3)c2C1.O=C(O)CC(O)(CC(=O)O)C(=O)O | 0 | 2000 | – | –
27 | CN1CCc2n[nH]c(-c3ccc(F)cc3)c2C1 | – | 507 | – | 0
28 | Cc1ccc(-c2[nH]nc3c2CNCC3)cc1.Cl.Cl | – | 92.2 | – | 0
29 | Cl.Cl.c1ccc(-c2[nH]nc3c2CNCC3)cc1 | -18 | 490 | – | –
30 | CCCCn1nc(-c2ccc(F)cc2)c2c1CCN(C)C2.CS(=O)(=O)O | -18 | 32.8 | – | –
31 | CCCn1nc(-c2ccc(F)cc2)c2c1CCN(C)C2.CS(=O)(=O)O | -25 | 73.5 | – | –
32 | Fc1ccc(-c2[nH]nc3c2CNCC3)cc1 | -37 | 69.2 | – | –
33 | CS(=O)(=O)O.Cn1nc(-c2ccccc2)c2c1CCNC2 | 0 | 3290 | – | –
34 | Cn1nc(-c2cccc(Cl)c2)c2c1CCNC2 | 0 | > 3000 | – | –
35 | CC(C)n1nc(-c2ccccc2)c2c1CCN(C)C2.CS(=O)(=O)O | 0 | 2870 | – | –
36 | Cn1nc(-c2cccc(F)c2)c2c1CCNC2 | 0 | > 3000 | – | –
37 | CN1CCc2c(c(-c3ccc(F)cc3)nn2Cc2ccccc2)C1.CS(=O)(=O)O | -18 | 21.2 | – | –
38 | Cc1ccc(S(=O)(=O)O)cc1.Cn1nc(-c2ccccc2F)c2c1CCNC2 | 0 | > 3000 | – | –
39 | CCCCCCn1nc(-c2ccc(F)cc2)c2c1CCNC2.CS(=O)(=O)O | 0 | 13 | – | –
40 | CCCCCn1nc(-c2ccc(F)cc2)c2c1CCN(C)C2.CS(=O)(=O)O | – | 18.3 | – | -21
41 | CCCCN1CCc2c(c(-c3ccc(F)cc3)nn2Cc2ccccc2)C1.Cl | -16 | 119 | – | –
42 | Cl.Fc1ccc(-c2nn(Cc3ccccc3)c3c2CN(C2CCCC2)CC3)cc1 | -18 | 42.4 | – | –
43 | CCN1CCc2n[nH]c(-c3ccccc3)c2C1.Cl | 0 | 1500 | – | –
44 | Cl.Fc1ccc(-c2nn(-c3ccc(F)cc3)c3c2CNCC3)cc1 | – | 161 | – | 0
45 | CN1CCc2c(c(-c3ccc(F)cc3)nn2CCCc2ccccc2)C1.Cl | 0 | 20.6 | – | –
46 | Cl.Cn1nc(-c2ccc(Cl)cc2)c2c1CCNC2 | -26 | 190 | – | –
47 | Cl.O=[N+]([O-])c1ccc(-c2[nH]nc3c2CNCC3)cc1 | 0 | > 3000 | – | –
48 | CC(c1ccccc1)n1nc(-c2ccc(F)cc2)c2c1CCN(C)C2.Cl (stereo unspecified) | – | 8.1 | – | -15
